Laboratory results reported in patent US20120283282A1, “Photoproducts of Tryptophan, Their Synthesis and Uses Thereof” (priority 2009, published 2012).

System: hepatic glucose output
Test: Glucose production assay in primary hepatocytes
Assay type: cell-based
Details: FIG. 5
Description: Primary hepatocytes were cultured in six-well plates (1.4 times 10^6 cells per well) in DMEM with 10% FBS or, in case of hormonal treatments, in serum-free DMEM. The medium was then replaced with 1 ml of glucose production buffer consisting of glucose-free DMEM (pH 7.4), without phenol red, supplemented with 20 mM sodium lactate and 2 mM sodium pyruvate. After a 3-h incubation, 0.5 ml of medium was collected and the glucose concentration measured with a colorimetric glucose assay kit (Sigma). The readings were then normalized to the total protein content determined from the whole-cell lysates. (Yoon J C, et al. Nature 413: 131-8, 2001.)

SMILES: c1ccc2c(-c3nccc4c3[nH]c3ccccc34)c[nH]c2c1 (single isomer, unassigned) [Compound F7, 1-(1H-indol-3-yl)-9H-pyrido[3,4-b]indole]
- hepatic glucose output: decreases hepatic glucose output
